The source of these data is patent publication US9957271B2, “Substituted bicyclic aza-heterocycles and analogues as sirtuin modulators” (GlaxoSmithKline, LLC, priority 2012, dated 2018).

Some results are limits rather than exact numbers.

The assay has as its target T1, SIRT1 (Homo sapiens, UniProt Q96EB6).
T1 sequence (Q96EB6 1-747): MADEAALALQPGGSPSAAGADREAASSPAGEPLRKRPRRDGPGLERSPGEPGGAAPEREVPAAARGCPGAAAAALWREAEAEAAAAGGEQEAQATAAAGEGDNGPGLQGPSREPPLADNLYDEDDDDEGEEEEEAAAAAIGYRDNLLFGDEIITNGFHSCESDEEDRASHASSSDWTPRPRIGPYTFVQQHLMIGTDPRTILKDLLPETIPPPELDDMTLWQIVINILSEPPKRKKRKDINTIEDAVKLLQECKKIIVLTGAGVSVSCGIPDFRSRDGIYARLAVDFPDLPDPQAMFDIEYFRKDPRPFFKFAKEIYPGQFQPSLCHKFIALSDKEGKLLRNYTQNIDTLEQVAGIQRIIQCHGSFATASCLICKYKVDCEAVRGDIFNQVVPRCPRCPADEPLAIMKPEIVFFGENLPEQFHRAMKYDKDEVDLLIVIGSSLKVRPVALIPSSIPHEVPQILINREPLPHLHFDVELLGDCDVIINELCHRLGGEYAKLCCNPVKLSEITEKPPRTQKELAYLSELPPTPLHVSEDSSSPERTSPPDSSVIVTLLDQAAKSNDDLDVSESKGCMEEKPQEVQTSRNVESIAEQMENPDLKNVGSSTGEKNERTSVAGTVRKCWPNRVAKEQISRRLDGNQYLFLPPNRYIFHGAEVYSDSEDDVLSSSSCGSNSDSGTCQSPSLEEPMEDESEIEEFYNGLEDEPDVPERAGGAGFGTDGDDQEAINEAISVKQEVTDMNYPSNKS
Nature of the assay: TAMRA based mass spectrometry assay of SIRT1 activity. The note with it: TAMRA assay; for TAMRA EC1.5 (μM): concentration giving 150% activation of SIRT1; for Emax: percent maximum fold activation, read-out: TAMRA % Fold Act. The assay is classed as biochemical. The method, boiled down:
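Deacetylation of a biotinylated, TAMRA-tagged p53-based peptide (0.5 μM) by 10 nM His-tagged SIRT1 with 120 μM βNAD+, 25 °C for 25 min, pH 8 Tris-acetate buffer, across a compound concentration range. Quenched by formic acid and read by mass spec as product peptide or OAADPR; activity relative to DMSO reactions, nicotinamide defining maximal inhibition.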

With `Cc1cc(OCC(O)CO)nc(NC(=O)c2cnc3ccc(-c4ccccc4F)nn23)n1` (stereo not shown) [Compound 286], the “TAMRA EC1.5 (μM)” value was “B (EC1.5 1-25 μM)” and the Emax was under 350%.
In the same order, the values of `O=C(Nc1cnc2ccc(-c3ccccc3Cl)nn12)c1cnccn1` [Compound 288] are “B (EC1.5 1-25 μM)” and under 350%.
For `O=C(Nc1cnc2ccc(-c3ccccc3Cl)nn12)c1ccncn1` [Compound 289] the same measures were “B (EC1.5 1-25 μM)” and under 350%.
For `Cc1nc(C(=O)Nc2cnc3ccc(-c4ccccc4Cl)nn23)cs1` [Compound 292] the same measures were “A (EC1.5<1 μM)” and at least 350%.
Regarding `O=C(Nc1cnc2ccc(-c3ccccc3Cl)nn12)c1nccs1` [Compound 294], the “TAMRA EC1.5 (μM)” value is on record as “B (EC1.5 1-25 μM)” and the Emax is under 350%.
For `CC1(COc2cccc(NC(=O)c3cnc4ccc(-c5ccccc5C(F)(F)F)nn34)n2)COC1` [Compound 295] the same measures were “A (EC1.5<1 μM)” and at least 350%.
Turning to `O=C(Nc1cnc2ccc(-c3ccccc3F)nn12)c1cscn1` [Compound 298], the “TAMRA EC1.5 (μM)” value is given as “B (EC1.5 1-25 μM)” and the Emax is under 350%.
As for `Cc1nc(C(=O)Nc2cnc3ccc(-c4ccccc4F)nn23)cs1` [Compound 299], the “TAMRA EC1.5 (μM)” value is “B (EC1.5 1-25 μM)” and the Emax was under 350%.
As for `Cc1nc(C(=O)Nc2cnc3ccc(-c4ccccc4F)nn23)c(C)s1` [Compound 300], the “TAMRA EC1.5 (μM)” value is listed as “A (EC1.5<1 μM)” and the Emax is under 350%.
As for `O=C(Nc1cnc2ccc(-c3ccccc3F)nn12)c1cccc(N2CCOCC2)n1` [Compound 301], the “TAMRA EC1.5 (μM)” value is on record as “A (EC1.5<1 μM)” and the Emax is at least 350%.
Consider `O=C(Nc1cnc2ccc(-c3ccccc3F)nn12)c1cccc(N2CCC2)n1` [Compound 302], for which the “TAMRA EC1.5 (μM)” value was “A (EC1.5<1 μM)” and the Emax was at least 350%.
In the same order, the values of `Cc1cnc(C(=O)Nc2cnc3ccc(-c4ccccc4F)nn23)s1` [Compound 304] are “B (EC1.5 1-25 μM)” and under 350%.
In the same order, the values of `Cc1cnc(C(=O)Nc2cnc3ccc(-c4ccccc4Cl)nn23)s1` [Compound 306] are “B (EC1.5 1-25 μM)” and at least 350%.
In the same order, the values of `O=C(Nc1cnc2ccc(-c3ccccc3Cl)nn12)c1cccc(N2CCOCC2)n1` [Compound 307] are “A (EC1.5<1 μM)” and at least 350%.
Turning to `Cc1cc(OCC(F)(F)F)nc(NC(=O)c2cnc3ccc(-c4ccccc4C(F)(F)F)nn23)n1` [Compound 310], the “TAMRA EC1.5 (μM)” value is “A (EC1.5<1 μM)” and the Emax was at least 350%.
In the same order, the values of `O=C(Nc1cnc2ccc(-c3ccccc3OC(F)(F)F)nn12)c1ccccn1` [Compound 312] are “A (EC1.5<1 μM)” and at least 350%.
For `O=C(Nc1cnc2ccc(-c3ccccc3OC(F)(F)F)nn12)c1cnccn1` [Compound 313] the same measures were “A (EC1.5<1 μM)” and at least 350%.
For the molecule `O=C(Nc1cnc2ccc(-c3ccccc3OC(F)(F)F)nn12)c1cscn1` [Compound 316], the “TAMRA EC1.5 (μM)” value is “A (EC1.5<1 μM)” and the Emax is at least 350%.
For `Cc1nc(C(=O)Nc2cnc3ccc(-c4ccccc4OC(F)(F)F)nn23)c(C)s1` [Compound 318] the same measures were “A (EC1.5<1 μM)” and at least 350%.
For `O=C(Nc1cnc2ccc(-c3ccccc3OC(F)(F)F)nn12)c1nccs1` [Compound 319] the same measures were “A (EC1.5<1 μM)” and at least 350%.
Turning to `O=C(Nc1cnc2ccc(-c3ccccc3OC(F)(F)F)nn12)c1cccc(N2CCC2)n1` [Compound 322], the “TAMRA EC1.5 (μM)” value is “A (EC1.5<1 μM)” and the Emax is at least 350%.
In the same order, the values of `O=C(Nc1ccccn1)c1c(O)nc2ccc(-c3ccccc3C(F)(F)F)nn12` [Compound 324] are “B (EC1.5 1-25 μM)” and under 350%.
In the same order, the values of `O=C(Nc1ccnc(OCC(F)(F)F)n1)c1cnc2ccc(-c3ccccc3C(F)(F)F)nn12` [Compound 325] are “B (EC1.5 1-25 μM)” and under 350%.
As for `N#Cc1ccccc1-c1ccc2ncc(NC(=O)c3ccccn3)n2n1` [Compound 328], the “TAMRA EC1.5 (μM)” value is reported as “A (EC1.5<1 μM)” and the Emax was at least 350%.
As for `N#Cc1ccccc1-c1ccc2ncc(NC(=O)c3ccncn3)n2n1` [Compound 330], the “TAMRA EC1.5 (μM)” value was “B (EC1.5 1-25 μM)” and the Emax was under 350%.
In the same order, the values of `N#Cc1ccccc1-c1ccc2ncc(NC(=O)c3ncccn3)n2n1` [Compound 331] are “B (EC1.5 1-25 μM)” and at least 350%.
For `Cc1nc(C(=O)Nc2cnc3ccc(-c4ccccc4C#N)nn23)cs1` [Compound 333] the same measures were “B (EC1.5 1-25 μM)” and at least 350%.
In the same order, the values of `Cc1nc(C(=O)Nc2cnc3ccc(-c4ccccc4C#N)nn23)c(C)s1` [Compound 334] are “A (EC1.5<1 μM)” and at least 350%.
On to `Cc1cnc(C(=O)Nc2cnc3ccc(-c4ccccc4C#N)nn23)s1` [Compound 336], for which the “TAMRA EC1.5 (μM)” value is on record as “B (EC1.5 1-25 μM)” and the Emax was at least 350%.
For `N#Cc1ccccc1-c1ccc2ncc(NC(=O)c3cccc(N4CCOCC4)n3)n2n1` [Compound 337] the same measures were “A (EC1.5<1 μM)” and at least 350%.
Take `Cc1cc(NC(=O)c2c(O)nc3ccc(-c4ccccc4C(F)(F)F)nn23)cc(C)n1` [Compound 341]: the “TAMRA EC1.5 (μM)” value is listed as “C (EC1.5>25 μM)” and the Emax is under 350%.
On to `O=C(Nc1ncccn1)c1c(O)nc2ccc(-c3ccccc3C(F)(F)F)nn12` [Compound 342], for which the “TAMRA EC1.5 (μM)” value is “C (EC1.5>25 μM)”.
As to `Cc1cccc(NC(=O)c2c(O)nc3ccc(-c4ccccc4C(F)(F)F)nn23)n1` [Compound 343], the “TAMRA EC1.5 (μM)” value is “C (EC1.5>25 μM)” and the Emax was under 350%.
Turning to `O=C(Nc1cccc(OCC(O)CO)n1)c1c(O)nc2ccc(-c3ccccc3C(F)(F)F)nn12` (stereo not shown) [Compound 344], the “TAMRA EC1.5 (μM)” value was “B (EC1.5 1-25 μM)” and the Emax is under 350%.
In the same order, the values of `O=C(Nc1cncc(OCC(O)CO)n1)c1c(O)nc2ccc(-c3ccccc3C(F)(F)F)nn12` (stereo not shown) [Compound 345] are “B (EC1.5 1-25 μM)” and at least 350%.
In the same order, the values of `Cc1nc2ccc(-c3ccccc3Cl)nn2c1NC(=O)c1cnccn1` [Compound 347] are “C (EC1.5>25 μM)” and under 350%.
Take `Cc1nc2ccc(-c3ccccc3Cl)nn2c1NC(=O)c1ncccn1` [Compound 349]: the “TAMRA EC1.5 (μM)” value is reported as “C (EC1.5>25 μM)” and the Emax was under 350%.
In the same order, the values of `Cc1nc2ccc(-c3ccccc3Cl)nn2c1NC(=O)c1cscn1` [Compound 350] are “C (EC1.5>25 μM)” and under 350%.
Take `Cc1nc2ccc(-c3ccccc3Cl)nn2c1NC(=O)c1nccs1` [Compound 353]: the “TAMRA EC1.5 (μM)” value is recorded as “B (EC1.5 1-25 μM)” and the Emax was under 350%.
In the same order, the values of `Cc1nc2ccc(-c3ccccc3Cl)nn2c1NC(=O)c1cccc(N2CCOCC2)n1` [Compound 355] are “A (EC1.5<1 μM)” and at least 350%.
